Data as given in patent US20110262508A1, “ANTIMICROBIAL COMPOSITIONS, FORMULATIONS AND USES THEREOF” (priority 2007, published 2011).
Values after ≈ are worked out from the molar mass of the structure shown. Peptide text beside a SMILES is read from it. * marks the point of attachment. Biotin = O=C1N[C@H]2[C@H](CS[C@H]2CCCCC(=O)*)N1

How the values were obtained:
[1] = Cytotoxicity against Jurkat cells (CellTiter Blue); assay type: cell-based, human; conditions: human
Description: (§1) The cytotoxicities of selected peptides against human T-lymphocytes, in particular Jurkat cells, was determined by growing 100 uL Jurkat cells in RPMI (approx. 5×10^5 cells/ml density) overnight at 37° C. under 5% CO2 atmosphere, in microtiter plate wells, in the presence and absence of peptides. Control reactions either lacked peptide (negative cytotoxicity control), or contained a buffer to completely lyse Jurkat cells (positive cytotoxicity control). The viabilities of cells were then determined by addition of 20 uL CellTiter Blue dye (Promega) to each well, and incubation of cells for a further 3 hrs at 37° C. Fluorescence values were measured for 1 sec at 540 nm/615 nm, and expressed relative to fluorescence values for negative and positive cytotoxicity control samples. Comparison with a fully lysed control allowed the calculation of a percentage killing for each peptide concentration. The MCC10 value was calculated as the minimum peptide concentration required to induce 10% cytotoxicity.

[2] = test system: Jurkat cells; test: Cytotoxicity against Jurkat cells (CellTiter Blue); assay type: cell-based, human
Description: as §1

[3] = test system: human RBC; test: Hemolysis of RBC; assay type: cell-based
Description: Varying amounts of peptide were incubated with the washed RBC for one hour at room temperature. Intact cells were pelleted by gentle centrifugation, and hemolysis of each sample was determined by absorption measurement at 450 nm. A positive control sample consisted of RBC lysed by the addition of 0.1% Triton, for which hemolysis was also determined by absorption measurement at 450 nm. Percentages of lysed RBC incubated with peptide were then calculated by the ratio of absorbances at 450 nm for the sample relative to the absorbance at 450 nm of the positive control sample. The MHC10 value was calculated as the minimum peptide concentration to induce 10% cell lysis.

[4] = test system: A. baumannii; assay type: cell-based
Method in brief: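 Laboratory strains and 50 clinical isolates of A. baumannii were tested by CLSI broth microdilution, with serially diluted peptide (0.1-64 μg) and about 1×10^5 C.F.U. per well, incubated aerobically overnight at 35±2° C. MIC was read visually. MBC came from subculturing clear wells, as ≥99.9% inoculum reduction.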

Compound | cytotoxicity at 12.5 μM [1] | cytotoxicity at 25 μM [1] | cytotoxicity at 50 μM [1] | MCC10 [2] | MHC10 [3] | haemolytic activity (in words) [3] | Percent hemolysis at 5 μM peptide ([3]; red cells of human, 5) | Percent hemolysis at 10 μM peptide ([3]; red cells of human, 10) | Percent hemolysis at 20 μM peptide ([3]; red cells of human, 20) | Percent hemolysis at 40 μM peptide ([3]; red cells of human, 40) | Percent hemolysis at 60 μM peptide ([3]; red cells of human, 60) | Percent hemolysis at 80 μM peptide ([3]; red cells of human, 80) | Percent hemolysis at 100 μM peptide ([3]; red cells of human, 1 h, 100) | MIC [4] | MIC (μM) for non-amidated Peptide [4] | bactericidal or bacteriostatic against A. baumannii [4] | MBC (μM) ([4]; A. baumannii (Table 8), reduces original inoculum by at least about 99.9%)
CC[C@H](C)[C@H](NC(=O)[C@H](C)NC(=O)[C@H](CC(N)=O)NC(=O)[C@H](CS)NC(=O)[C@H](CS)NC(=O)CCCC[C@@H]1SC[C@@H]2NC(=O)N[C@@H]21)C(=O)N[C@H](C(=O)N[C@@H](Cc1ccc(O)cc1)C(=O)N[C@@H](CCCCN)C(=O)N[C@@H](Cc1c[nH]c2ccccc12)C(=O)N[C@H](C(=O)N[C@@H](CC(C)C)C(=O)N[C@@H](Cc1c[nH]cn1)C(=O)N[C@@H](Cc1ccccc1)C(=O)N[C@@H](Cc1ccccc1)C(=O)N[C@@H](Cc1c[nH]c2ccccc12)C(=O)N[C@@H](CCCNC(=N)N)C(=O)N[C@@H](CCCCN)C(=O)N[C@@H](CCCNC(=N)N)C(=O)N[C@@H](C)C(=O)N[C@@H](Cc1c[nH]c2ccccc12)C(=O)N[C@@H](Cc1ccc(O)cc1)C(=O)N[C@@H](CS)C(=O)N[C@@H](Cc1ccccc1)C(=O)O)[C@@H](C)CC)[C@@H](C)CC [Ac228] (Biotin-CCNAIIYKWILHFFWRKRAWYCF-OH; N-terminus and C-terminus assumed) | 0% | 5% | 29% | 42 µM | ~10 µM | reproducibly higher haemolytic activities | 2.6% | 11.0% | 9.9% | 22.9% | 40.1% | 80.4% | 97.1% | 25 µM (≈ 82.4 µg/mL) | 20 to 25 µM | bacteriostatic | bacteriostat
CC(C)C[C@H](NC(=O)[C@H](CC(N)=O)NC(=O)[C@H](CCCCN)NC(=O)[C@@H]1CCCN1C(=O)[C@H](CC(C)C)NC(=O)[C@H](CS)NC(=O)[C@H](Cc1ccccc1)NC(=O)[C@H](Cc1ccccc1)NC(=O)CNC(=O)[C@@H](NC(=O)[C@H](CCCNC(=N)N)NC(=O)CCCC[C@@H]1SC[C@@H]2NC(=O)N[C@@H]21)[C@@H](C)O)C(=O)N[C@@H](CCCCN)C(=O)N[C@@H](CCCNC(=N)N)C(=O)N[C@@H](CO)C(=O)N[C@@H](CCCCN)C(=O)N[C@@H](Cc1ccccc1)C(=O)N[C@@H](CS)C(=O)N[C@@H](C)C(=O)N[C@@H](Cc1ccccc1)C(=O)N[C@@H](CC(C)C)C(=O)N[C@@H](CC(=O)O)C(=O)N1CCC[C@H]1C(=O)N[C@H](C(=O)O)[C@@H](C)O [Ac323] (Biotin-RTGFFCLPKNLKRSKFCAFLDPT-OH; N-terminus and C-terminus assumed) | 9% | 31% | 49% | 13 µM | 30 µM | – | – | – | – | – | – | – | – | – | 20 µM | – | –
CC[C@H](C)[C@H](NC(=O)[C@H](Cc1c[nH]cn1)NC(=O)[C@H](CO)NC(=O)[C@H](CC(C)C)NC(=O)[C@H](CS)NC(=O)[C@H](CS)NC(=O)[C@H](CCCNC(=N)N)NC(=O)[C@H](CCSC)NC(=O)[C@@H](NC(=O)[C@@H]1CCCN1C(=O)[C@H](CCC(N)=O)NC(=O)[C@H](Cc1c[nH]cn1)NC(=O)[C@H](CS)NC(=O)CCCC[C@@H]1SC[C@@H]2NC(=O)N[C@@H]21)[C@@H](C)O)C(=O)N[C@@H](CCCNC(=N)N)C(=O)N[C@@H](CCCNC(=N)N)C(=O)N[C@@H](CCCNC(=N)N)C(=O)N[C@@H](Cc1ccccc1)C(=O)N[C@@H](CCCNC(=N)N)C(=O)N[C@@H](CC(C)C)C(=O)O [Ac431] (Biotin-CHQPTMRCCLSHIRRRFRL-OH; N-terminus and C-terminus assumed) | 4% | 15% | 29% | 20 µM | 25 µM | – | – | – | – | – | – | – | – | – | 15 µM | – | –
CC[C@H](C)[C@H](NC(=O)[C@H](Cc1ccccc1)NC(=O)[C@H](CC(C)C)NC(=O)[C@H](CCC(N)=O)NC(=O)[C@H](CCCNC(=N)N)NC(=O)[C@H](Cc1ccccc1)NC(=O)[C@H](Cc1ccc(O)cc1)NC(=O)[C@H](CC(C)C)NC(=O)[C@H](Cc1c[nH]c2ccccc12)NC(=O)[C@H](Cc1ccccc1)NC(=O)[C@H](CCCNC(=N)N)NC(=O)[C@H](CCCNC(=N)N)NC(=O)[C@H](CO)NC(=O)[C@H](CC(=O)O)NC(=O)[C@H](CC(C)C)NC(=O)[C@H](Cc1c[nH]c2ccccc12)NC(=O)[C@H](Cc1ccccc1)NC(=O)[C@H](CC(=O)O)NC(=O)[C@H](CCCNC(=N)N)NC(=O)CCCC[C@@H]1SC[C@@H]2NC(=O)N[C@@H]21)C(=O)N[C@@H](Cc1c[nH]cn1)C(=O)N[C@@H](CC(N)=O)C(=O)N1CCC[C@H]1C(=O)N[C@@H](CCCCN)C(=O)O [Ac475] (Biotin-RDFWLDSRRFWLYFRQLFIHNPK-OH) | 4% | 4% | 60% | 35 µM | 10 µM | – | – | – | – | – | – | – | – | – | 15 µM | – | –
CC[C@H](C)[C@H](NC(=O)[C@@H]1CCCN1C(=O)CCCC[C@@H]1SC[C@@H]2NC(=O)N[C@@H]21)C(=O)N1CCC[C@H]1C(=O)N[C@@H](Cc1ccccc1)C(=O)N[C@@H](Cc1ccccc1)C(=O)N[C@@H](CC(N)=O)C(=O)N[C@@H](CCCNC(=N)N)C(=O)N[C@H](C(=O)NCC(=O)N[C@@H](Cc1ccccc1)C(=O)N[C@@H](Cc1ccccc1)C(=O)N[C@@H](CS)C(=O)N[C@@H](CC(C)C)C(=O)N1CCC[C@H]1C(=O)N[C@@H](CCCCN)C(=O)N[C@@H](CC(N)=O)C(=O)N[C@@H](CC(C)C)C(=O)N[C@@H](CCCCN)C(=O)N[C@@H](CCCNC(=N)N)C(=O)N[C@@H](CO)C(=O)N[C@@H](CCCCN)C(=O)N[C@@H](Cc1ccccc1)C(=O)N[C@@H](CS)C(=O)O)[C@@H](C)O [Ac322] (Biotin-PIPFFNRTGFFCLPKNLKRSKFC-OH; N-terminus and C-terminus assumed) | 0% | 0% | 59% | 30 µM | 25 µM | – | – | – | – | – | – | – | – | – | 5 µM | – | –
CC(C)C[C@H](NC(=O)[C@H](Cc1ccccc1)NC(=O)CNC(=O)[C@H](CO)NC(=O)[C@@H]1CCCN1C(=O)[C@H](Cc1c[nH]c2ccccc12)NC(=O)[C@@H](NC(=O)[C@@H]1CCCN1C(=O)[C@H](CCCNC(=N)N)NC(=O)[C@@H](NC(=O)[C@H](C)NC(=O)[C@H](CS)NC(=O)[C@H](CCCNC(=N)N)NC(=O)[C@H](CO)NC(=O)[C@H](CO)NC(=O)[C@H](C)NC(=O)[C@H](C)NC(=O)[C@H](CCCNC(=N)N)NC(=O)[C@H](CO)NC(=O)[C@H](CO)NC(=O)[C@H](Cc1c[nH]cn1)NC(=O)[C@@H]1CCCN1C(=O)CCCC[C@@H]1SC[C@@H]2NC(=O)N[C@@H]21)C(C)C)C(C)C)C(=O)N[C@@H](CCCNC(=N)N)C(=O)O [Ac327] (Biotin-PHSSRAASSRCAVRPVWPSGFLR-OH) | 20% | 31% | 1% | 8 µM | 30 µM | – | – | – | – | – | – | – | – | – | 20 µM | – | –
CC(C)C[C@H](NC(=O)[C@H](CCC(N)=O)NC(=O)[C@H](CCCNC(=N)N)NC(=O)[C@H](Cc1ccccc1)NC(=O)[C@H](Cc1ccc(O)cc1)NC(=O)[C@H](CC(C)C)NC(=O)[C@H](Cc1c[nH]c2ccccc12)NC(=O)[C@H](Cc1ccccc1)NC(=O)[C@H](CCCNC(=N)N)NC(=O)[C@H](CCCNC(=N)N)NC(=O)[C@H](CO)NC(=O)[C@H](CC(=O)O)NC(=O)[C@H](CC(C)C)NC(=O)[C@H](Cc1c[nH]c2ccccc12)NC(=O)[C@H](Cc1ccccc1)NC(=O)[C@H](CC(=O)O)NC(=O)[C@H](CCCNC(=N)N)NC(=O)[C@H](CCCNC(=N)N)NC(=O)[C@H](C)NC(=O)[C@H](CCC(N)=O)NC(=O)[C@H](CO)NC(=O)[C@H](CCCNC(=N)N)NC(=O)CCCC[C@@H]1SC[C@@H]2NC(=O)N[C@@H]21)C(=O)N[C@@H](Cc1ccccc1)C(=O)O [Ac474] (Biotin-RSQARRDFWLDSRRFWLYFRQLF-OH) | 13% | 20% | 81% | 10 µM | 5 µM | – | – | – | – | – | – | – | – | – | 25 µM | – | –
